In US11129845B2, “Compositions and methods for the delivery of nucleic acids” (CASE WESTERN RESERVE UNIVERSITY, priority 2014, dated 2021):

What was measured:
[1] = tested on: luciferase reporter; experiment: Luciferase reporter silencing in HT29-Luc cells; assay type: cell-based, human; conditions: for Luciferase expression: 100 nM siRNA
Experimental: Gene silencing efficiency was investigated in the HT29-Luc cell line by analyzing the expression of a luciferase reporter after anti-Luc siRNA therapy. To perform this study, cancer cells were seeded in 12 well plates at a density of 20,000 cells per well. Transfections were conducted in fresh serum-free media with 100 nM of siRNA when the cells were 25% confluent. The cells continued to grow in normal growth media for an additional 48 and 72 h, at which point they were rinsed twice with PBS and lysed for protein collection. The lysis buffer was a component of a Promega Luciferase Assay kit designed for measuring luciferase expression in the cell lysate. Equally important, the lysis buffer was compatible with the BCA protein assay so that we were able to normalize the luciferase expression in our samples with total protein content. For this silencing study, all synthesized carriers were evaluated at N/P ratios of 8, 10, 12, 14, 16, 18, and 20 to determine the best transfection formulation. Relative luciferase expression was determined for each trial using a SpectraMax luminometer upon the addition of a light-inducing luciferin substrate to the collected protein.
The RNAi capabilities of each carrier were investigated by analyzing the silencing of a luciferase (Luc) reporter in HT29 cancer cells after anti-Luc siRNA therapy. To perform this study, we seeded HT29-Luc cells in 12 well plates at a density of 20,000 cells per well. When 25% confluency, the cells were incubated with fresh serum-free transfection media containing nanoparticles at a dose of 100 nM siRNA. After 4 hours, the media was replaced with fresh complete growth media, so that the cells could continue to grow for an additional 48-72 hours, at which point they were lysed for protein collection. The lysis buffer was compatible with the BCA protein assay so that we could normalize luciferase expression in our samples. Negative controls included cells that were treated with 1) particles encapsulating non-specific siRNA, 2) naked anti-Luc siRNA, or 3) plain serum-free media. Luciferase expression was determined using a Spectra Max luminometer upon the addition of a light-inducing substrate to the collected protein. A similar knockdown experiment was also conducted in non-cancerous CHO cells expressing a GFP reporter. Flow cytometry was utilized to assess the silencing efficiency of the ECO and ECL delivery systems in this cell line. Cytotoxicity of the carriers 48 hours post-transfection was also investigated in both cell lines using an MTT colorimetric assay. […] These RNAi silencing levels surpassed those obtained with a Lipofectamine RNAiMax commercial transfection agent.

[2] = tested on: HT29-Luc cells; experiment: Live-cell confocal imaging of intracellular siRNA release; assay type: cell-based, human
Experimental: Live-cell confocal imaging was utilized to image the intracellular release and dispersion of siRNA following transfection with the lipid carrier that performed best during the reporter knockdown studies. Approximately 50,000 HT29-Luc cells were seeded onto glass-bottom dishes (MatTek—Ashland, Mass.). Once 40% confluency was established, the cells were stained with 75 nM LysoTracker Red DND-99 (Invitrogen) for 30 min in normal growth medium. Afterwards, the cells were transfected with 100 nM Alexa Fluor 488-labeled anti-Luc siRNA in fresh serum-free media using the designed cationic lipid agent that performed the best in the above reporter knockdown experiments. Imaging commenced 5 min post-transfection using an Olympus FV1000 confocal microscope, and continued periodically over the first 2 h. Throughout the course of the study, all cells were kept alive on the microscope in a humidified weather station under normal gas conditions (5% CO2). Another image was acquired after 24 h following re-administration of the LysoTracker stain.
Confocal microscopy was utilized to perform a time course study that analyzed the uptake and intracellular release kinetics of siRNA using the ECO delivery platform. Intracellular release and dispersion of siRNA is essential in RNA interference since the RNAi machinery is found in the cytosol. The images in FIG. 27 reveal that upon cellular uptake, the ECO nanoparticles are able to facilitate the escape of its siRNA payload from the endocytic pathway within the first 2 hours after transfection, avoiding lysosomal degradation. Such results are in congruence with the hemolytic activity data showing the membrane disruptive properties of the delivery system in pH environments characteristic of both endosomes and lysosomes.

[3] = Zeta-potential of siRNA-lipid complexes (Malvern Zetasizer); assay type: physicochemical
Experimental: The cationic lipid carriers are dissolved in ethanol at a stock concentration of 2.5 mM, while all siRNA is reconstituted in nuclease-free water at a 0.25 μg/μL (18.8 μM) concentration. Nanoparticles are formulated by mixing the carriers with siRNA for a period of 30 min in RNase-free phosphate buffer saline (PBS) at pre-specified N/P ratios (N=number of protonable amines in lipid, P=number of phosphate groups in the siRNA). In preparing the lipoplexes, proper dilutions were made such that the volume ratio of ethanol:water was kept constant at 1:20. Minimizing the amount of ethanol is important because it is effective in dissolving lipids, thus inhibiting particle formation. The diameters (as determined by dynamic light scattering) and zeta potentials of all nanoparticles were analyzed using a Malvern Zetasizer instrument at pH=7.4. siRNA encapsulation efficiency was calculated using a RiboGreen fluorescence-based assay from Invitrogen, designed specifically for detection of free RNA at […] wavelengths of 480 and 520 nm, respectively. Nanoparticles were created with all carriers in the library so that final siRNA concentrations were 1.6 μg/mL. A linear standard curve was utilized to calculate the encapsulation efficiencies from signal intensities measured by a SpectraMax microplate reader (Molecular Devices).

[4] = Ribogreen siRNA entrapment efficiency of ECO/siRNA nanoparticles; assay type: physicochemical
Excerpt: A Ribogreen assay (Molecular Probes) was used to quantify the entrapment efficiency of siRNA within the ECO/siRNA nanoparticles. […] Free siRNA following particle formation was detected using a SpectraMax microplate reader (Molecular Devices) with an excitation of 500 nm and emission of 525 nm.

[5] = tested on: HT29-Luc cells; experiment: MTT cytotoxicity in HT29-Luc cells; assay type: cell-based, human
[6] = tested on: HT29 colon carcinoma cells; experiment: Cellular uptake of Alexa Fluor 488-siRNA via flow cytometry; assay type: cell-based, human; conditions: HT29, N/P=18, 4 h, 100 nM Alexa Fluor 488-siRNA
Experimental: Flow cytometry was used to investigate the cellular uptake of our delivery system in HT29 colon carcinoma cells. All carriers in the library were formulated into nanoparticles by condensing Alexa Fluor 488-labeled siRNA at the optimal N/P ratio determined by the above luciferase knockdown studies. Approximately 50,000 cancer cells were seeded in 6-well plates and allowed to grow until 30-50% confluence was reached. The cancer cells were transfected with a 100 nM siRNA dose in serum-free media. After 4 h, the transfection media were aspirated and the cells were washed twice with PBS. The cells were then trypsinized, collected, and fixed with 2% paraformaldehyde in PBS, prior to flow cytometric analysis.

## CCCCCCCC/C=C\CCCCCCCC(=O)N[C@@H](CS)C(=O)NCCNC(=O)CCN(CCN)CCC(=O)NCCNC(=O)[C@H](CS)NC(=O)CCCCCCC/C=C\CCCCCCCC [ECO, (1-aminoethyl)iminobis[N-(oleicylcysteinyl-1-amino-ethyl)propionamide]]
[1]; HT29, N/P 18, 72 h post-transfection
  luciferase knockdown (transfection efficiency): 77.5±3.3%
[1]; HT29-Luc, N/P ratio of 18, over 72 hours
  silencing efficiency: 80%
[1]; HT29-Luc, N/P=12, 72 h
  Luciferase expression: 33.5±3.82%
[1]; HT29-Luc, N/P=18 (Lipofectamine per manufacturer), 72 h
  Luciferase expression: 22.7±3.31%
[2]; HT29-Luc, after transfection
  time to escape of siRNA payload from the endocytic pathway: ≤ 90 min
[2]; HT29-Luc, post-transfection
  time to evade lysosomal degradation: ≤ 1 h
[2]; after transfection (Example 3)
  time to escape of siRNA payload from the endocytic pathway: ≤ 120 min
[3]; pH = 7.4, N/P = 2
  Zeta-potential of siRNA-lipid complexes: −32.20 ± 0.90 mV
[3]; pH = 7.4, N/P = 5
  Zeta-potential of siRNA-lipid complexes: −16.84 ± 1.58 mV
[3]; pH = 7.4, N/P = 8
  Zeta-potential of siRNA-lipid complexes: 28.82 ± 1.03 mV
[3]; pH = 7.4, N/P = 10
  Zeta-potential of siRNA-lipid complexes: 25.68 ± 2.02 mV
[3]; pH = 7.4, N/P = 15
  Zeta-potential of siRNA-lipid complexes: 25.19 ± 2.32 mV
[4]; N/P=6
  siRNA entrapment (RiboGreen): 82.1±4.3%
[4]; N/P=20
  siRNA entrapment (RiboGreen): 98.7±5.0%
[5]; HT29, N/P=18
  cell viability (MTT): 87.3±2.72%
[5]; HT29, N/P=20
  cell viability (MTT): 51.5±5.87%
[6]
  cellular uptake, mean fluorescence intensity (MFI): 2571±90
